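Dose response: 5 concentrations. Exposure: 48 h. Format: 96-well plates. Endpoint: linear interpolation; highest concentration if not reached. GI50 marks 50% less growth. At the TGI there is no net growth.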
Experiments:
Assay in all cases: growth of human tumour cells (NCI), 48 h
BT-549 breast = system: BT-549 breast
K-562 leukemia = system: K-562 leukemia
M14 melanoma = system: M14 melanoma
MCF7 breast = system: MCF7 breast
MDA-MB-231 breast = system: MDA-MB-231 breast
NCI-H226 lung = system: NCI-H226 lung
SF-539 CNS = system: SF-539 CNS
HS 578T breast = system: HS 578T breast
NCI-H460 lung = system: NCI-H460 lung
OVCAR-8 ovarian = system: OVCAR-8 ovarian

| Structure (SMILES) | GI50 (BT-549 breast) | TGI (BT-549 breast) | GI50 (K-562 leukemia) | GI50 (M14 melanoma) | TGI (M14 melanoma) | GI50 (MCF7 breast) | TGI (MCF7 breast) | GI50 (MDA-MB-231 breast) | TGI (MDA-MB-231 breast) | GI50 (NCI-H226 lung) | TGI (NCI-H226 lung) | GI50 (SF-539 CNS) | TGI (SF-539 CNS) | GI50 (HS 578T breast) | TGI (HS 578T breast) | TGI (K-562 leukemia) | GI50 (NCI-H460 lung) | TGI (NCI-H460 lung) | GI50 (OVCAR-8 ovarian) | TGI (OVCAR-8 ovarian) |
| --- | --- | --- | --- | --- | --- | --- | --- | --- | --- | --- | --- | --- | --- | --- | --- | --- | --- | --- | --- | --- |
| Cl.Fc1c[c-]c(-c2ccccn2)c(F)c1.[Pt].c1ccc([PH+](CC[PH+](c2ccccc2)c2ccccc2)c2ccccc2)cc1 | 0.0867 µM | 0.978 µM | 0.0369 µM | 0.0741 µM | 1.22 µM | 0.0625 µM | 1.1 µM | 0.178 µM | 0.496 µM | 0.184 µM | 1.13 µM | 0.164 µM | 0.976 µM | – | – | – | – | – | – | – |
| O=C(Nc1ccncc1)C(=O)c1cn(S(=O)(=O)c2ccccc2F)c2ccccc12 | 4.41 µM | 54.8 µM | 1.37 µM | 0.979 µM | > 100 µM | 0.547 µM | 27.5 µM | 3.97 µM | 64.9 µM | 6.93 µM | > 68.6 µM | 1.19 µM | 7.88 µM | 5.27 µM | > 100 µM | > 100 µM | 6.75 µM | > 100 µM | 2.7 µM | 52.4 µM |
| CCc1oc2ccccc2c1C(=O)c1cc(Br)c(O)c(Br)c1 | – | 71.4 µM | – | – | 80.6 µM | – | 51.5 µM | – | 44.7 µM | – | 50 µM | – | 32.9 µM | – | 59 µM | 82.7 µM | – | 34.2 µM | – | > 100 µM |
| O=C(O)c1ccc([N+](=O)[O-])c2c(=O)c3ccccc3[nH]c12 | – | – | – | – | > 100 µM | – | – | – | – | – | – | – | > 100 µM | – | – | > 100 µM | – | > 100 µM | – | > 100 µM |
| Cc1cc(-c2nc3ccc(O)cc3s2)ccc1N | 14.2 µM | 33.9 µM | 36.4 µM | 33.1 µM | > 100 µM | 56.5 µM | > 100 µM | 44.7 µM | > 100 µM | 60.2 µM | > 100 µM | – | – | 95.5 µM | > 100 µM | > 100 µM | 38.9 µM | > 100 µM | > 100 µM | > 100 µM |
| CCCN(CCC)C(=O)Cc1c2n(c3ccccc13)Cc1ccccc1-2 | – | – | – | – | > 100 µM | – | – | – | – | – | > 100 µM | – | > 100 µM | – | – | > 100 µM | – | > 100 µM | – | > 100 µM |
| O=C(CNC(=O)c1cccc2ccccc12)Nc1ccccc1Oc1ccccc1 | 0.41 µM | 5.43 µM | 0.0704 µM | 0.278 µM | > 10 µM | 0.306 µM | > 10 µM | 0.982 µM | > 10 µM | 2.19 µM | > 10 µM | 0.237 µM | 0.695 µM | 0.363 µM | > 10 µM | > 10 µM | 0.333 µM | > 10 µM | 0.315 µM | > 10 µM |
| CCOC(=O)C#Cc1ccc(C#CC(=O)OCC)cc1 | – | > 21.7 µM | – | – | > 20.7 µM | – | 10.6 µM | – | > 22.7 µM | – | > 23.7 µM | – | > 47.5 µM | – | 29 µM | – | – | > 46.8 µM | – | > 23.2 µM |
| O=C(Nc1nccs1)c1cc(C2=CC=CC([N+](=O)[O-])C=C2)nc(=S)[nH]1 (stereo unspecified) | – | – | – | – | > 100 µM | – | – | – | – | – | > 100 µM | – | > 100 µM | – | – | > 100 µM | – | > 100 µM | – | > 100 µM |
| Cc1cc(S(=O)(=O)NC#N)c(S/C(=N\Nc2ccc([N+](=O)[O-])cc2)c2ccccc2)cc1Cl | 15.7 µM | 36.7 µM | 15.2 µM | 18.1 µM | 37.3 µM | 14.7 µM | 28.3 µM | – | – | 16.3 µM | 33.1 µM | – | – | 16.2 µM | 43.2 µM | 42.9 µM | 18.7 µM | 36.3 µM | 16.8 µM | 42.8 µM |
| CCCC(=O)N[C@@H](Cc1cc(I)c(O)c(I)c1)C(=O)NCCCNCCCCNCCCNC(=O)[C@@H](N)CCCN=C(N)N | – | – | – | – | > 100 µM | – | – | – | – | – | > 100 µM | – | > 100 µM | – | – | > 100 µM | – | > 100 µM | – | > 100 µM |
| COc1ccc(C(=O)/C=C/c2cc(C(=O)c3cc(OC)c(OC)c(OC)c3)ccc2OC)cc1 | 2.85 µM | > 100 µM | 2.86 µM | 4.92 µM | > 100 µM | 3.05 µM | > 100 µM | 3.69 µM | > 100 µM | 4.34 µM | > 100 µM | – | – | 4.3 µM | > 100 µM | > 100 µM | – | – | 4.61 µM | > 100 µM |
| COc1ccc2nc(NC(=O)C(=O)CC(=O)c3ccc(Cl)cc3)sc2c1 | – | – | – | – | > 100 µM | – | – | – | – | – | > 100 µM | – | 98.4 µM | – | – | – | – | > 100 µM | – | > 100 µM |
| CCOC(=O)[C@@H](C)C[C@H](Cc1ccccc1)NC(=O)c1csc([C@@H](C[C@H](C(C)C)N(C)C(=O)[C@H](CCC(C)C)NC(=O)[C@H]2CCCCN2C)OC(C)=O)n1 | 0.0119 µM | 0.195 µM | < 0.00333 µM | – | – | < 0.00333 µM | 6.3 µM | 0.00821 µM | 0.398 µM | 0.0495 µM | 11.6 µM | 0.00838 µM | 0.0289 µM | 0.00922 µM | 3.54 µM | 4.45 µM | 0.00407 µM | 3.78 µM | 0.0125 µM | 10.1 µM |
| COC1=C(C(=O)OC(C)(C)C)[C@]2(C)C(C(=O)OC(C)(C)C)C(OC)=C(C(=O)OC(C)(C)C)[C@]2(C)C1C(=O)OC(C)(C)C (stereo partly specified) | – | – | – | – | > 100 µM | – | – | – | – | – | > 100 µM | – | > 100 µM | – | – | > 100 µM | – | > 100 µM | – | > 100 µM |
| c1cncc(C(Nc2cccc3cccnc23)Nc2cccc3cccnc23)c1 | – | > 100 µM | – | – | > 100 µM | – | > 100 µM | – | > 100 µM | – | – | – | > 100 µM | – | > 100 µM | > 100 µM | – | > 100 µM | – | > 100 µM |
| COc1ccc(C=NC23CC4CC(CC(C4)C2)C3)cc1 | – | – | – | – | > 100 µM | – | – | – | – | – | > 100 µM | – | > 100 µM | – | – | > 100 µM | – | > 100 µM | – | > 100 µM |
| Cc1cccc(C)c1NC(=O)C(=O)CC(=O)CO | – | – | – | – | > 100 µM | – | – | – | – | – | > 100 µM | – | > 100 µM | – | – | > 100 µM | – | > 100 µM | – | > 100 µM |
| CCN(CC)C(=S)N/N=C(\C)c1ccccc1O | – | – | – | – | 51.3 µM | – | – | – | – | – | 56.8 µM | – | 54.4 µM | – | – | > 100 µM | – | 97.4 µM | – | > 100 µM |

Source: PubChem BioAssay (NCI)
